Data reported in patent publication US4868154A, “Stimulation of tear secretion with melanocyte stimulating hormones” (Eye Research Institute of Retina Foundation, priority 1986, dated 1989).
Where no end group is shown, it is not given here.

Assays:
rabbits with dry eyes = assay: Tear film osmolality after topical drops in dry eye rabbits; format: in vivo; conditions: dry eye rabbit, topical 10 μl drops, 10^-5 M, 10^-4 M and 10^-3 M in buffer, FIGS. 2 to 4; for tear film osmolality compared with buffer alone: tear samples at 6 and 16 minutes
Experimental: In vivo examples in accordance with the invention were conducted on rabbits with dry eyes. The dry eye disorder is created by surgically closing the duct that carries fluid from the main lacrimal gland to the tear film and surgically removing the nictitans and harderian glands. This leaves intact only the accessory glands that lie on the surface of the eye. These rabbits develop increased tear film osmolality soon after the operation, a finding that is understood to be due to decreased tear production, and that is characteristic of dry eye. It is recognized that results of opthalmologic tests using rabbits has close correlation with humans and therefore the results carry over to humans
The effect on tear film osmolality of topically applied isotonic buffer solution with and without melanocyte stimulating hormones which activate the melanotropin receptors was studied in the dry eye rabbit. All test drops were ten microliters (μl) in volume. Tear samples were taken with a micropipette system, in the manner described in the article entitled "Osmolarity of Tear Microvolumes in Keratoconjunctivitis Sicca", by Gilbard et al, Arch Ophthalmol 96:677, 1978. Osmolarity was measured by freezing-point depression.
The following protocol was used to test the effects of the topically applied melanotropins. At zero time a tear sample was taken for measurement of osmolality. At one minute the test drop was instilled. At six and at sixteen minutes, tear samples were taken for osmolality measurements. Five minutes after the sixteen minute sample, the above sequence was repeated several times to test additional drops.
The following drops were instilled in the test eye and after each such instillation, test samples were taken as stated: (1) buffer solution, (2) buffer solution containing a melanocyte stimulating hormone at a low dose, (3) buffer solution, (4) buffer solution containing a melanocyte stimulating hormone at a moderate dose, (5) buffer solution, (6) buffer solution containing a melanocyte stimulating hormone at a higher dose. The melanocyte stimulating hormone may be obtained from Peninsula Laboratories,Inc., Belmont California. The results are shown in FIGS. 1 through 4 A, B, and C, where FIGS. 1 through 4 each represent results obtained from the same rabbit.

lacrimal gland cells = conditions: Dartt et al, Am. J. Physio. 247: G502, 1984; cited from earlier work
lacrimal gland = conditions: topical administration; Gilbard and Dartt, patent pending; cited from earlier work
tissue pieces in vitro = conditions: Jahn et al Eur. J. Biochem 126: 623, 1982; cited from earlier work

Row | Substance | dose dependence of the decrease in tear film osmolality (rabbits with dry eyes) | tear film osmolality compared with buffer alone (rabbits with dry eyes) | cyclic AMP levels in lacrimal gland cells (lacrimal gland cells) | lacrimal gland fluid secretion (lacrimal gland) | protein secretion (tissue pieces in vitro)
1 | gamma-melanocyte stimulating hormone [gamma-MSH] | dose-dependent decrease in tear film osmolality | lowers the tear film osmolality more effectively than buffer alone | – | – | –
2 | beta-melanocyte stimulating hormone [beta-MSH] | dose-dependent decrease in tear film osmolality | lowers the tear film osmolality more effectively than buffer alone | – | – | –
3 | vasoactive intestinal peptide (HSDAVFTDNYTRLRKQMAVKKYLNSILN; ends and bridges not checked; UniProt P01282 125-152, looked up) [peptide cited from prior work as stimulating lacrimal gland fluid secretion] | – | – | increase cyclic AMP levels | stimulates lacrimal gland fluid secretion | –
4 | adrenocorticotropic hormone (SYSMEHFRWGKPVGKKRRPVKVYPNGAEDESAEAFPLEF; Corticotropin; UniProt P01189 138-176, looked up) [hormone cited from literature as stimulating protein secretion in vitro] | – | – | – | – | stimulate protein secretion
